According to patent publication US4450269A, “Mono-5-substituted-3-chloro-4H-1,2,6-thiadiazin-4-one antifungal agents” (FMC Corporation, priority 1980, dated 1984):

Test system: Alternaria solani
Experiment: Mycelial growth test
Format: cell-based
Conditions: Alternaria solani, 72 h, AS, read-out: Percent Fungus Growth Inhibition

SMILES	inhibition at 5 ppm	inhibition at 10 ppm	inhibition at 20 ppm	inhibition at 40 ppm
Cc1ccc(Cl)c(Oc2nsnc(Cl)c2=O)c1 [Compound 56, 3-chloro-5-[(2-chloro-5-methyl)phenoxy]-4H--1,2,6-thiadiazin-4-one]	52%	71%	81%	100%
N#CCc1ccc(Oc2nsnc(Cl)c2=O)cc1 [Compound 46, 3-chloro-5-[(4-cyanomethyl)-phenoxy]4H--1,2,6-thiadiazin-4-one]	71%	81%	100%	100%
O=C(Nc1ccccc1)Oc1ccc(Oc2nsnc(Cl)c2=O)cc1 [Compound 37, 3-chloro-5-[4-(phenylaminocarbonyloxy)phenoxy]-4H-1,2,6,-thiadiazin-4-one]	46%	50%	50%	54%
O=C(Nc1ccccc1)Nc1ccc(Oc2nsnc(Cl)c2=O)cc1 [Compound 29, 3-chloro-5-[4-(3-phenylureido)-phenoxy]-4H--1,2,6-thiadiazin-4-one]	47%	30%	37%	47%
Cc1cccc(C)c1Oc1nsnc(Cl)c1=O [Compound 24, 3-chloro-5-(2,6-dimethylphenoxy)-4H--1,2,6-thiadiazin-4-one]	100%	88%	100%	100%
O=C(O)c1ccc(Oc2nsnc(Cl)c2=O)cc1 [Compound 50, 3-(4-carboxyphenoxy)-5-chloro-4H--1,2,6-thiadiazin-4-one]	33%	21%	54%	63%
COc1ccc(Cl)c(Oc2nsnc(Cl)c2=O)c1 [Compound 51, 3-chloro-5-[(2-chloro-5-methoxy)phenoxy]-4H--1,2,6-thiadiazin-4-one]	52%	75%	81%	90%
O=c1c(Cl)nsnc1Oc1ccc(O)cc1 [Compound 35, 3-chloro-5-(4-hydroxyphenoxy)-4H-1,2,6-thiadiazin-4-one]	90%	100%	100%	100%
Cc1cccc(Oc2nsnc(Cl)c2=O)c1 [Compound 21, 3-chloro-5-(3-methylphenoxy)-4H--1,2,6-thiadiazin-4-one]	75%	63%	75%	100%
O=c1c(Cl)nsnc1Oc1ccc(Cl)cc1 [Compound 12, 3-chloro-5-(4-chlorophenoxy)-4H--1,2,6-thiadiazin-4-one]	31%	31%	63%	100%
CC(=O)c1cccc(Oc2nsnc(Cl)c2=O)c1 [Compound 48, 3-(3-acetylphenoxy)-5-chloro-4H--1,2,6-thiadiazin-4-one]	88%	92%	100%	100%
CC(=O)c1ccccc1Oc1nsnc(Cl)c1=O [Compound 49, 3-(2-acetylphenoxy)-5-chloro-4H--1,2,6-thiadiazin-4-one]	100%	100%	100%	100%
Cc1ccc(Oc2nsnc(Cl)c2=O)c(Br)c1 [Compound 57, 3-[(2-bromo-4-methyl)-phenoxy]-5-chloro-4H--1,2,6-thiadiazin-4-one]	71%	90%	90%	90%
Cc1cc(Oc2nsnc(Cl)c2=O)cc(C)c1Br [Compound 60, 3-[(4-bromo-3,5-dimethyl)-phenoxy]-5-chloro-4H--1,2,6-thiadiazin-4-one]	33%	43%	52%	52%
Nc1ccc(Oc2nsnc(Cl)c2=O)cc1 [Compound 26, 5-(4-aminophenoxy)-3-chloro-4H--1,2,6-thiadiazin-4-one]	60%	80%	100%	100%
O=c1c(Cl)nsnc1Oc1c(Cl)c(Cl)c(Cl)c(Cl)c1Cl [Compound 31, 3-chloro-5-(pentachlorophenoxy)-4H--1,2,6-thiadiazine-4-one]	48%	60%	48%	67%
O=c1c(Cl)nsnc1Oc1ccc(Br)cc1 [Compound 15, 3-chloro-5-(4-bromophenoxy)-4H--1,2,6-thiadiazin-4-one]	54%	66%	66%	75%
